Laboratory results as given in patent publication US9676789B2, “Aminated derivative of homoharringtonine, preparation method therefor, and application thereof” (HANGZHOU BENSHENG PHARMACEUTICAL CO., LTD., priority 2011, dated 2017).
Values after ≈ are worked out from the molar mass of the structure shown.

Assays:
[1] = system: H9 (acute lymphoblastic leukemia, ALL); assay: MTT leukemia cell growth inhibition, 72 h; assay type: cell-based, human; conditions: Homo sapiens, H9, 72 h; for IC50: read-out: IC50; for IC90: read-out: IC90
Text: (§1) Leukemia cell lines: K562/adr (drug-resistant, chronic myeloid leukemia, CML), NB4 (acute promyelocytic leukemia, AML), Kasumi-1 (acute myeloid leukemia M2 type, AML-M2), Jurkat (acute lymphoblastic leukemia, ALL), all of which are donated by Cancer Research Institute of Zhejiang University, China; and H9 (acute lymphoblastic leukemia, ALL), which is purchased from China Center for Type Culture Collection.
(§2) Obtaining 6000 well-growing leukemia cells and inoculating them into wells of a 96-well cell culture plate. The culture medium is the 1640 cell culture medium containing 10% fetal bovine serum. After adding the homoharringtonine derivatives of different concentrations and mixing uniformly, placing the plate in a carbon dioxide cell incubator (5% CO2) at 37° C. and incubating for 72 hours. Then the viable cell concentration is determined by the MTT method. In this experiment, the cell viability in control group (not treated with any compound) is set as 100%.

[2] = system: Jurkat (acute lymphoblastic leukemia, ALL); assay: MTT leukemia cell growth inhibition, 72 h; assay type: cell-based, human; conditions: Homo sapiens; for IC50: read-out: IC50; for IC90: read-out: IC90
Text: as §1, §2

[3] = system: K562/adr (drug-resistant, chronic myeloid leukemia, CML); assay: MTT leukemia cell growth inhibition, 72 h; assay type: cell-based, human; conditions: Homo sapiens, K562/Adr; for IC50: read-out: IC50; for IC90: read-out: IC90
Text: as §1, §2

[4] = system: Kasumi-1 (acute myeloid leukemia M2 type, AML-M2); assay: MTT leukemia cell growth inhibition, 72 h; assay type: cell-based, human; conditions: Homo sapiens, Kasumi-1, 72 h; for IC50: read-out: IC50; for IC90: read-out: IC90
Text: as §1, §2

[5] = system: NB4 (acute promyelocytic leukemia, AML); assay: MTT leukemia cell growth inhibition, 72 h; assay type: cell-based, human; conditions: Homo sapiens, NB4, 72 h; for IC50: read-out: IC50; for IC90: read-out: IC90
Text: as §1, §2

[6] = system: RPMI8226 (multiple myeloma); assay: MTT multiple myeloma cell growth inhibition, 72 h; assay type: cell-based, human; conditions: Homo sapiens, RPMI-8226, RPMI8226, 72 h; for IC50: read-out: IC50; for IC90: read-out: IC90
Procedure: Multiple myeloma and lymphoma cell lines: RPMI8226 (multiple myeloma), purchased from Fuxiang Bio-tech Co. Ltd., Shanghai, China.
as §2, with “method.” for “method. In this experiment, the cell viability in control group (not treated with any compound) is set as 100%.”

A549 (human lung cancer) = assay: MTT solid tumor cell growth inhibition, 72 h; assay type: cell-based; conditions: Homo sapiens, A549, 72 h; for IC50: read-out: IC50; for IC90: read-out: IC90
Procedure: (§3) Human solid tumor cell lines: Hep-2 ([…]), A549 (human lung cancer), CaES-17 (esophageal cancer cell), PC-3 (prostate cancer), CNE (nasopharyngeal carcinoma cell), and SK-OV-3 (ovarian cancer cell), all of which are purchased from China Center For Type Culture Collection; RKO (human colon adenocarcinoma cell), MGC 803 (human gastric cancer cell), MG63 (osteosarcoma) and U87 MG (malignant glioma cell), all of which are purchased from Fuxiang Bio-tech Co. Ltd., Shanghai, China; PANC-1 (pancreatic cancer), Huh7 (human liver cancer cell), Becap37 (human breast cancer cell), and Hela (human cervical cancer cell), all of which are donated by Cancer Research Institute of Zhejiang University, China.
(§4) Obtaining 4000 well-growing human solid tumor cells and inoculating them into wells of a 96-well cell culture plate. The culture medium is DMEM High Glucose cell culture medium containing 10% fetal bovine serum. The plate is placed in a carbon dioxide cell incubator (5% CO2) at 37° C. and incubating for 24 hours. After adding the homoharringtonine derivatives of different concentration and mixing uniformly, the plate is placed in a carbon dioxide cell incubator (5% CO2) at 37° C. and incubating for 72 hours. Then the viable cell concentration is determined by the MTT method and the cell viability (%) after drug treatment is calculated. In this experiment, the cell viability of control group (not treated with any compound) is set as 100%.

[7] = system: Becap37 (human breast cancer cell); assay: MTT solid tumor cell growth inhibition, 72 h; assay type: cell-based; conditions: Homo sapiens, Becap37, 72 h; for IC50: read-out: IC50; for IC90: read-out: IC90
Procedure: as §3, §4

[8] = system: Hela (human cervical cancer cell); assay: MTT solid tumor cell growth inhibition, 72 h; assay type: cell-based; conditions: Homo sapiens, HeLa; for IC50: read-out: IC50; for IC90: read-out: IC90
Procedure: as §3, §4

[9] = system: Hep-2 (human hepatocellular carcinoma); assay: MTT solid tumor cell growth inhibition, 72 h; assay type: cell-based; conditions: Homo sapiens, HEp-2, Hep2, 72 h; for IC50: read-out: IC50; for IC90: read-out: IC90
Procedure: as §3, §4

[10] = system: Huh7 (human liver cancer cell); assay: MTT solid tumor cell growth inhibition, 72 h; assay type: cell-based; conditions: Homo sapiens, Huh-7, Huh7, 72 h; for IC50: read-out: IC50; for IC90: read-out: IC90
Procedure: as §3, §4

[11] = system: MGC 803 (human gastric cancer cell); assay: MTT solid tumor cell growth inhibition, 72 h; assay type: cell-based; conditions: Homo sapiens, MGC 803, 72 h; for IC50: read-out: IC50; for IC90: read-out: IC90
Procedure: as §3, §4

[12] = system: RKO (human colon adenocarcinoma cell); assay: MTT solid tumor cell growth inhibition, 72 h; assay type: cell-based; conditions: Homo sapiens; for IC50: read-out: IC50; for IC90: read-out: IC90
Procedure: as §3, §4

[13] = system: CNE (nasopharyngeal carcinoma cell); assay: MTT solid tumor cell growth inhibition, 72 h; assay type: cell-based, human; conditions: Homo sapiens; for IC50: read-out: IC50; for IC90: read-out: IC90
Procedure: as §3, §4

[14] = system: CaES-17 (esophageal cancer cell); assay: MTT solid tumor cell growth inhibition, 72 h; assay type: cell-based, human; conditions: Homo sapiens, CaEs17, CaES-17, 72 h; for IC50: read-out: IC50; for IC90: read-out: IC90
Procedure: as §3, §4

MG63 (osteosarcoma) = assay: MTT solid tumor cell growth inhibition, 72 h; assay type: cell-based, human; conditions: Homo sapiens, MG 63, 72 h; for IC50: read-out: IC50; for IC90: read-out: IC90
Procedure: as §3, §4

[15] = system: PANC-1 (pancreatic cancer); assay: MTT solid tumor cell growth inhibition, 72 h; assay type: cell-based, human; conditions: Homo sapiens, PANC-1, 72 h; for IC50: read-out: IC50; for IC90: read-out: IC90
Procedure: as §3, §4

PC-3 (prostate cancer) = assay: MTT solid tumor cell growth inhibition, 72 h; assay type: cell-based, human; conditions: Homo sapiens, PC-3, 72 h; for IC50: read-out: IC50; for IC90: read-out: IC90
Procedure: as §3, §4

[16] = system: SK-OV-3 (ovarian cancer cell); assay: MTT solid tumor cell growth inhibition, 72 h; assay type: cell-based, human; conditions: Homo sapiens, SK-OV-3, 72 h; for IC50: read-out: IC50; for IC90: read-out: IC90
Procedure: as §3, §4

[17] = system: U87 MG (malignant glioma cell); assay: MTT solid tumor cell growth inhibition, 72 h; assay type: cell-based, human; conditions: Homo sapiens, U-87 MG; for IC50: read-out: IC50; for IC90: read-out: IC90
Procedure: as §3, §4

Compound | IC50 [1] [µg/mL] | IC90 [1] [µg/mL] | IC50 [2] [µg/mL] | IC90 [2] [µg/mL] | IC50 [3] [µg/mL] | IC90 [3] [µg/mL] | IC50 [4] [µg/mL] | IC90 [4] [µg/mL] | IC50 [5] [µg/mL] | IC90 [5] [µg/mL] | IC50 [6] [µg/mL] | IC90 [6] [µg/mL] | IC50 (A549 (human lung cancer)) [µg/mL] | IC90 (A549 (human lung cancer)) [µg/mL] | IC50 [7] [µg/mL] | IC90 [7] [µg/mL] | IC50 [8] [µg/mL] | IC90 [8] [µg/mL] | IC50 [9] [µg/mL] | IC90 [9] [µg/mL] | other results
COC1=C[C@]23CCCN2CCc2cc4c(cc2[C@@H]3[C@@H]1OC(=O)[C@@](O)(CCCC(C)(C)O)CC(=O)N1CCN(c2ccccn2)CC1)OCO4 [BS-HH-044] | 1.41 (≈ 2.08 µM) | 16 (≈ 23.6 µM) | 0.48 (≈ 0.709 µM) | 16 (≈ 23.6 µM) | 5.18 (≈ 7.65 µM) | 16 (≈ 23.6 µM) | 0.38 (≈ 0.561 µM) | 2.25 (≈ 3.32 µM) | 0.25 (≈ 0.369 µM) | 0.64 (≈ 0.946 µM) | 0.48 (≈ 0.709 µM) | 3.36 (≈ 4.96 µM) | 1.76 (≈ 2.6 µM) | > 16 | 0.71 (≈ 1.05 µM) | > 16 | 1.91 (≈ 2.82 µM) | > 16 | 1.23 (≈ 1.82 µM) | > 16 | IC50 [10]: 0.94 µg/mL (≈ 1.39 µM); IC90 [10]: > 16 µg/mL; IC50 [11]: 0.74 µg/mL (≈ 1.09 µM); IC90 [11]: > 16 µg/mL; IC50 [12]: 0.16 µg/mL (≈ 0.236 µM); IC90 [12]: 2.37 µg/mL (≈ 3.5 µM); IC50 [13]: 0.76 µg/mL (≈ 1.12 µM); IC90 [13]: > 16 µg/mL; IC50 [14]: 1.63 µg/mL (≈ 2.41 µM); IC90 [14]: 16 µg/mL (≈ 23.6 µM); IC50 (MG63 (osteosarcoma)): 0.8 µg/mL (≈ 1.18 µM); IC90 (MG63 (osteosarcoma)): > 16 µg/mL; IC50 [15]: 1.91 µg/mL (≈ 2.82 µM); IC90 [15]: > 16 µg/mL; IC50 (PC-3 (prostate cancer)): 0.78 µg/mL (≈ 1.15 µM); IC90 (PC-3 (prostate cancer)): > 16 µg/mL; IC50 [16]: 3.97 µg/mL (≈ 5.87 µM); IC90 [16]: > 16 µg/mL; IC50 [17]: 0.64 µg/mL (≈ 0.946 µM); IC90 [17]: 16 µg/mL (≈ 23.6 µM)
COC(=O)C[C@](O)(CCCC(C)(C)O)C(=O)O[C@@H]1C(OC)=C[C@]23CCCN2CCc2cc4c(cc2[C@H]13)OCO4 [HHT, O-3-[(2R)-2,6-dihydroxy-2-(2′-methoxy-2′-oxoethyl)-6-methylheptanoyl]cephalotaxine, reference compound] | 0.02 (≈ 0.0367 µM) | 0.046 (≈ 0.0843 µM) | 0.007 (≈ 0.0128 µM) | 16 (≈ 29.3 µM) | 0.035 (≈ 0.0641 µM) | 0.98 (≈ 1.8 µM) | 0.005 (≈ 0.00916 µM) | 0.024 (≈ 0.044 µM) | 0.006 (≈ 0.011 µM) | 0.012 (≈ 0.022 µM) | 0.006 (≈ 0.011 µM) | 0.027 (≈ 0.0495 µM) | 0.03 (≈ 0.055 µM) | > 16 | 0.01 (≈ 0.0183 µM) | 11.6 (≈ 21.2 µM) | 0.019 (≈ 0.0348 µM) | 16 (≈ 29.3 µM) | 0.014 (≈ 0.0257 µM) | > 16 | IC50 [10]: 0.004 µg/mL (≈ 0.00733 µM); IC90 [10]: 0.049 µg/mL (≈ 0.0898 µM); IC50 [11]: 0.016 µg/mL (≈ 0.0293 µM); IC90 [11]: 0.2 µg/mL (≈ 0.367 µM); IC50 [12]: 0.003 µg/mL (≈ 0.0055 µM); IC90 [12]: 0.009 µg/mL (≈ 0.0165 µM); IC50 [13]: 0.038 µg/mL (≈ 0.0696 µM); IC90 [13]: > 16 µg/mL; IC50 [14]: 0.037 µg/mL (≈ 0.0678 µM); IC90 [14]: > 16 µg/mL; IC50 (MG63 (osteosarcoma)): 0.01 µg/mL (≈ 0.0183 µM); IC90 (MG63 (osteosarcoma)): 1.2 µg/mL (≈ 2.2 µM); IC50 [15]: 0.035 µg/mL (≈ 0.0641 µM); IC90 [15]: > 16 µg/mL; IC50 (PC-3 (prostate cancer)): 0.004 µg/mL (≈ 0.00733 µM); IC90 (PC-3 (prostate cancer)): 0.049 µg/mL (≈ 0.0898 µM); IC50 [16]: 0.003 µg/mL (≈ 0.0055 µM); IC90 [16]: 0.009 µg/mL (≈ 0.0165 µM); IC50 [17]: 0.004 µg/mL (≈ 0.00733 µM); IC90 [17]: 0.018 µg/mL (≈ 0.033 µM)
